Patent publication US20240409536A1, “COMPOUNDS AND METHODS FOR MODULATING SPLICING” (REMIX THERAPEUTICS INC., priority 2021, published 2024)
pIC50: −log10 of the molar value.

Experiments:
HTT mRNA = assay: Splicing RT-qPCR assay, HTT canonical (CJ) and alternative (AJ) junction mRNA; type: cell-based; settings: Homo sapiens, A673 or K562 cells, 24 hours; for pIC50: decrease in canonical junction mRNA; for AC50: increase in alternative junction mRNA
How it was run: (§1)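 Splice switching was scored by qPCR detection of the new alternative-exon junction (AJ) alongside the canonical junction (CJ). Cell lines A673 or K562 received compound 24 h, top dose 10 uM final.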

Target C = assay: HiBiT protein abundance assay, Target C (K562 HiBiT knock-in cells); type: cell-based, human; settings: 24 hours
How it was run: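 K562 knock-in cells (10000/well, IMDM+1% FBS) treated 24 h at 37 °C with 10-point 3-fold dilutions, top final 10 μM, DMSO ≤0.25%. HiBiT lytic luminescence read; response normalized to unmodified K562 and DMSO-treated controls. IC50 interpolated at 50% abundance by four-parameter logistic fit.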

MYB mRNA = assay: Splicing RT-qPCR assay, MYB canonical (CJ) and alternative (AJ) junction mRNA; type: cell-based; settings: Homo sapiens, A673 or K562 cells, 24 hours; for pIC50: decrease in canonical junction mRNA; for AC50: increase in alternative junction mRNA
How it was run: as §1

Structure (SMILES)	pIC50 (HTT mRNA)	AC50 (HTT mRNA)	pIC50 (Target C)	pIC50 (MYB mRNA)	AC50 (MYB mRNA)
Cc1cn2cc(NC(=O)c3ccc(N4CCC(NC5CC5)CC4)c4ccnnc34)cc(F)c2n1 [Compound 259, 5-[4-(cyclopropylamino)piperidin-1-yl]-N-{8-fluoro-2-methylimidazo[1,2-a]pyridin-6-yl} cinnoline-8-carboxamide]	6.00 to 7.00	0.1 to 1 µM	5.00 to 6.00	> 7.00	< 0.1 µM
COc1nc2c(N3C[C@@H](C)N[C@@H](C)C3)ccc(C(=O)Nc3cc(F)c4nc(C)cn4c3)c2nc1C [Compound 260, 8-((3R,5S)-3,5-dimethylpiperazin-1-yl)-N-(8-fluoro-2-methylimidazo[1,2-a]pyridin-6-yl)-2-methoxy-3-methylquinoxaline-5-carboxamide; 2,2,2-trifluoroacetate]	6.00 to 7.00	1 to 10 µM	5.00 to 6.00	6.00 to 7.00	0.1 to 1 µM
Cc1cn2cc(NC(=O)c3c(F)cc(N4C[C@@H](C)N[C@@H](C)C4)c4nccnc34)cc(F)c2n1 [Compound 261, cis-8-[(3R,5S)-3,5-dimethylpiperazin-1-yl]-6-fluoro-N-{8-fluoro-2-methylimidazo[1,2-a]pyridin-6-yl}quinoxaline-5-carboxamide]	5.00 to 6.00	1 to 10 µM	5.00 to 6.00	> 7.00	< 0.1 µM
Cc1cn2cc(NC(=O)c3ccc(N4C5CNCC54)c4nccnc34)cc(F)c2n1 (centres unmarked) [Compound 262, 8-{3,6-diazabicyclo[3.1.0]hexan-6-yl}-N-{8-fluoro-2-methylimidazo[1,2-a]pyridin-6-yl}quinoxaline-5-carboxamide]	6.00 to 7.00	0.1 to 1 µM	6.00 to 7.00	6.00 to 7.00	0.1 to 1 µM
Cc1cn2cc(NC(=O)c3ccc(N4C[C@@H](C)N[C@@H](C5CC5)C4)c4nccnc34)cc(F)c2n1 [Compound 266, 8-((3S,5R)-3-cyclopropyl-5-methylpiperazin-1-yl)-N-(8-fluoro-2-methylimidazo[1,2-a]pyridin-6-yl)quinoxaline-5-carboxamide]	5.00 to 6.00	0.1 to 1 µM	6.00 to 7.00	> 7.00	< 0.1 µM
Cc1cn2cc(NC(=O)c3ccc(N4C[C@@H](C5CC5)N[C@@H](C)C4)c4nccnc34)cc(F)c2n1 [Compound 267, 8-((3R,5S)-3-cyclopropyl-5-methylpiperazin-1-yl)-N-(8-fluoro-2-methylimidazo[1,2-a]pyridin-6-yl)quinoxaline-5-carboxamide]	< 5.00	> 10 µM	< 5.00	6.00 to 7.00	0.1 to 1 µM
COc1ccc2c(N3C[C@@H](C)N[C@@H](C)C3)ccc(C(=O)Nc3cc(F)c4nc(C)cn4c3)c2n1 [Compound 268, 5-[(3R,5S)-3,5-dimethylpiperazin-1-yl]-N-{8-fluoro-2-methylimidazo[1,2-a]pyridin-6-yl}-2-methoxyquinoline-8-carboxamide]	5.00 to 6.00	1 to 10 µM	5.00 to 6.00	6.00 to 7.00	< 0.1 µM
Cc1cn2cc(NC(=O)c3ccc(N4CC[C@@H](N)C4)c4ccnnc34)cc(F)c2n1 [Compound 270]	5.00 to 6.00	1 to 10 µM	5.00 to 6.00	6.00 to 7.00	< 0.1 µM
COc1cc2c(N3C[C@@H](C)N[C@@H](C)C3)ccc(C(=O)Nc3cc(F)c4nc(C)cn4c3)c2nn1 [Compound 273, 5-[(3R,5S)-3,5-dimethylpiperazin-1-yl]-N-{8-fluoro-2-methylimidazo[1,2-a]pyridin-6-yl}-3-methoxycinnoline-8-carboxamide]	6.00 to 7.00	0.1 to 1 µM	6.00 to 7.00	6.00 to 7.00	0.1 to 1 µM
Cc1cn2cc(NC(=O)c3ccc(N4C[C@@H](C)N[C@@H](C)C4)c4ncc(O)nc34)cc(F)c2n1 [Compound 275]	< 5.00	> 10 µM	< 5.00	< 5.00	> 10 µM
COc1nc(NC(=O)c2ccc(N3C[C@@H](C)N[C@@H](C)C3)c3nccnc23)cn2cc(C)nc12 [Compound 277]	6.00 to 7.00	1 to 10 µM	5.00 to 6.00	> 7.00	< 0.1 µM
Cc1cn2cc(NC(=O)c3ccc(N4C[C@@H](C)N[C@@H](C)C4)c4nccnc34)nc(Cl)c2n1 [Compound 279]	< 5.00	> 10 µM	< 5.00	> 7.00	0.1 to 1 µM
Cc1cn2cc(NC(=O)c3ccc(N4C[C@@H](C)N[C@@H](C)C4)c4ncc(Cl)nc34)cc(F)c2n1 [Compound 281]	< 5.00	> 10 µM	5.00 to 6.00	5.00 to 6.00	1 to 10 µM
Cc1cn2cc(NC(=O)c3ccc(N4C[C@@H](C)N[C@@H](C)C4)c4ncc(N(C)C)nc34)cc(F)c2n1 [Compound 283]	6.00 to 7.00	0.1 to 1 µM	6.00 to 7.00	> 7.00	0.1 to 1 µM
Cc1cn2c(C)c(NC(=O)c3ccc(N4C[C@@H](C)N[C@@H](C)C4)c4nccnc34)cc(F)c2n1 [Compound 285]	5.00 to 6.00	1 to 10 µM	5.00 to 6.00	6.00 to 7.00	1 to 10 µM
COc1nc(NC(=O)c2ccc(N3C[C@@H](C)N[C@@H](C)C3)c3nccnc23)nc2cn(C)nc12 [Compound 287]	< 5.00	> 10 µM	< 5.00	5.00 to 6.00	> 10 µM
Cc1cn2cc(NC(=O)c3ccc(N4C[C@@H](C)N[C@@H](C)C4)c4nccnc34)nc(C)c2n1 [Compound 288]	5.00 to 6.00	1 to 10 µM	5.00 to 6.00	> 7.00	< 0.1 µM
C[C@@H]1CN(c2ccc(C(=O)Nc3ccc4nc(N(C)C)oc4c3)c3nccnc23)C[C@H](C)N1 [Compound 290]	< 5.00	> 10 µM	< 5.00	5.00 to 6.00	> 10 µM
COc1nc2ccc(NC(=O)c3ccc(N4C[C@@H](C)N[C@@H](C)C4)c4nccnc34)cc2o1 [Compound 292]	< 5.00	> 10 µM	5.00 to 6.00	5.00 to 6.00	> 10 µM
Cc1cn2cc(NC(=O)c3ccc(N4C[C@@H](C)N[C@@H](C)C4)c4nccnc34)cc(C#N)c2n1 [Compound 294]	5.00 to 6.00	> 10 µM	< 5.00	6.00 to 7.00	0.1 to 1 µM
CCOc1cnc2c(N3C[C@@H](C)N[C@@H](C)C3)ccc(C(=O)Nc3cc(F)c4nc(C)cn4c3)c2n1 [Compound 296]	6.00 to 7.00	0.1 to 1 µM	6.00 to 7.00	> 7.00	< 0.1 µM
COc1nc(NC(=O)c2ccc(N3C[C@@H](C)N[C@@H](C)C3)c3nccnc23)cc2oc(C)nc12 [Compound 298]	< 5.00	> 10 µM	5.00 to 6.00	6.00 to 7.00	0.1 to 1 µM
COc1ncc2c(N3C[C@@H](C)N[C@@H](C)C3)ccc(C(=O)Nc3cc(F)c4nc(C)cn4c3)c2n1 [Compound 300]	6.00 to 7.00	0.1 to 1 µM	6.00 to 7.00	> 7.00	< 0.1 µM
Cc1cn2cc(NC(=O)c3ccc(N4C[C@@H](C)N[C@@H](C)C4)c4cncnc34)cc(F)c2n1 [Compound 302]	5.00 to 6.00	1 to 10 µM	5.00 to 6.00	6.00 to 7.00	0.1 to 1 µM
Cc1cn2cc(NC(=O)c3ccc(N4C[C@@H](C)N[C@@H](C)C4)c4nccnc34)cc(Cl)c2n1 [Compound 304]	5.00 to 6.00	> 10 µM	< 5.00	> 7.00	< 0.1 µM
